Test: Dynamic vapor sorption (DVS) test, form stability as a function of relative humidity
Assay type: physicochemical
Details: 25° C.
Procedure: DVS test was performed using an SMS (Surface Measurement Systems) DVS Intrinsic instrument. The relative humidity at 25° C. were calibrated against deliquescence point of LiCl, Mg(NO3)2 and KCl. The following instrument parameters were used:
DVS test was performed on crystalline Compound 1, Form 1, to investigate its form stability as a function of relative humidity. The DVS test was first conducted at 25° C. with humidity cycled between 0% RH-95% RH-0% RH.

Q: Which “crystal form change before and after DVS test (XRPD)” value (0% RH-95% RH-0% RH, checked by XRPD) does the source give for `CNCC1CCCCN1C(=O)Oc1ccc(CNC(=O)CCCC/C=C/C(C)C)cc1OC.Cl` (stereo not drawn) [Compound 1, Form 1, (E)-2-methoxy-4-((8-methylnon-6-enamido)methyl)phenyl 2-((methylamino)methyl)piperidine-1-carboxylate hydrochloride] here?
A: no form change occurred

Q: And the “moisture content (DVS)” value (at 95% RH, cycle 0% RH-95% RH-0% RH)?
A: 16.5 % wt

Q: What about the “moisture content, relative stable platform (DVS)” value (between 20% RH and 70% RH) of the same compound?
A: ~3.5 % wt
